Source: US10023565B2, “N,N′ substituted piperidinamine compounds, and preparation method and usage thereof” (Institute of Pharmacology and Toxicology Academy of …, priority 2013, dated 2018)

Columns and labels:
Experiment in all cases: Antitumor bioactivity evaluation, breast cancer cells (ATPlite)
[1] = test system: BT/Lap^R1.0; type: cell-based, human; conditions: Homo sapiens; test sample 5 μM, 72 hours; read-out: Inhibitory Rate % BT/Lap^R1.0
Description: (§1) Antitumor bioactivity evaluation of the compounds of Examples according to the method described below
(§2) Cells plating: a 100 mm culture dish with overgrown adherent cells was digested with 1 ml 0.25% trypsin (GIBCO) at 37° C. for 5 min, and the reaction was terminated with 2 ml culture medium (containing 10% FBS, GIBCO). The cells were scattered and collected, after counting, diluted to 1×10^5 cells/ml, and seeded into a 96-well plate at 50 μl/well, 5000 cells/well, excluding the peripheral circle of wells in which no cell was added, but PBS was added, 60 wells in total, and then incubated at 37° C. for 24 hours for adhering.
(§3) Addition of the compound and lapatinib: the test sample was diluted to a final concentration of 5 μM, and the culture medium with the corresponding compound solvent concentration was filled in the control well, the compound solvent concentration was kept consistent in each well, 5 parellel wells were set for each concentration, 25 μl each well, 25 μl culture medium (in combined group, 25 μl lapatinib was added till a final concentration of 1 μM) supplemented, followed by incubation at 37° C. for 72 hours.
(§4) Test after incubation at 37° C. for 72 hours: 50 μL of ATPlite kit substrate solution was added in each well, and vibrated for 3 min, followed by placing aside in darkness for 10 min, and then supernatant 100 μl/well was taken and placed on aluminescence test plate; the luminescence test plate that has been fully incubated was placed in a luminescence test instrument, to read luminescence value.
(§5) 1. Cell survival rate (%)=Experimental group RLU/control group RLU×100%. The experimental data were subjected to data analysis and processing by utilizing GraphPad software.

[2] = test system: MDA-MB-453; type: cell-based; conditions: Homo sapiens, test sample 5 μM, 72 hours, read-out: Inhibitory Rate % MDA-MB-453
Description: as §1, §2, §3, §4, §5

[3] = test system: SK/Lap^R1.0; type: cell-based; conditions: Homo sapiens; test sample 5 μM, 72 hours; read-out: Inhibitory Rate % SKLap^R1.0
Description: as §1, §2, §3, §4, §5

[4] = test system: MDA-MB-361; type: cell-based; conditions: Homo sapiens, test sample 5 μM, 72 hours, read-out: Inhibitory Rate % MDA-MB-361
Description: as §1, §2, §3, §4, §5

[5] = test system: BT474; type: cell-based; conditions: Homo sapiens, BT-474; test sample 5 μM, 72 hours; read-out: Inhibitory Rate % BT474
Description: as §1, §2, §3, §4, §5

[6] = test system: SK-BR3; type: cell-based; conditions: Homo sapiens, SK-BR-3; test sample 5 μM, 72 hours; read-out: Inhibitory Rate % SK-BR3
Description: as §1, §2, §3, §4, §5

Structure (SMILES)	inhibition at 5 µM [1]	inhibition at 5 µM [2]	inhibition at 5 µM [3]	inhibition at 5 µM [4]	inhibition at 5 µM [5]	inhibition at 5 µM [6]
CSc1nccc(N2CCC(N(C)Cc3cc(Cl)ccc3Cl)CC2)n1 [Example 44, N-methyl-N-(2,5-dichlorobenzyl)-N-[1-(2-methylthiopyrimidin-4-yl)piperidin-4-yl]amine]	63.9%	66.2%	35.2%	50.4%	67.1%	32.6%
CN(Cc1c(F)cccc1Cl)C1CCN(Cc2cnc(Cl)s2)CC1 [Example 19, N-methyl-N-(2-fluoro-6-chlorobenzyl)-N-{[1-(2-chlorothiazol-5-yl)methyl]piperidin-4-yl}amine]	3.2%	22.4%	1.5%	10.4%	10.6%	9.8%
COc1cc(N2CCC(N(C)Cc3ccc(C#N)cc3)CC2)ncn1 [Example 66, N-methyl-N-(p-cyanobenzyl)-N-[1-(6-methoxypyrimidin-4-yl)piperidin-4-yl]amine]	16.9%	46.1%	8.8%	20.3%	25.1%	17.3%
COc1nccc(N2CCC(N(C)Cc3ccc(C)cc3)CC2)n1 [Example 51, N-methyl-N-(4-methylbenzyl)-N-[1-(2-methoxypyrimidin-4-yl)piperidin-4-yl]amine]	65.2%	70.5%	22.4%	45.7%	65.6%	34.5%
CSc1ncc(CN2CCC(N(C)Cc3cccc(F)c3)CC2)s1 [Example 27, N-methyl-N-(3-fluorobenzyl)-N-{[1-(2-methylthiothiazol-5-yl)methyl]piperidin-4-yl}amine]	19.8%	44.2%	2.1%	31.7%	26.3%	19.5%
CSc1nccc(N2CCC(N(C)Cc3cccc(F)c3)CC2)n1 [Example 45, N-methyl-N-(3-fluorobenzyl)-N-[1-(2-methylthiopyrimidin-4-yl)piperidin-4-yl]amine]	17.5%	45.3%	34.2%	36.2%	21.3%	22.2%
COc1nccc(N2CCC(N(C)Cc3cc(Cl)ccc3Cl)CC2)n1 [Example 52, N-methyl-N-(2,5-dichlorobenzyl)-N-[1-(2-methoxypyrimidin-4-yl)piperidin-4-yl]amine]	68.1%	68.7%	80.7%	64.1%	74.2%	87.6%
CCOc1ncc(CN2CCC(N(C)Cc3ccc(Cl)c(Cl)c3)CC2)s1 [Example 3, N-methyl-N-(3,4-dichlorobenzyl)-N-{1-[(2-ethoxythiazol-5-yl)methyl]piperidin-4-yl}amine]	67.4%	71.6%	13.1%	35.8%	62.9%	41.2%
COc1cc(N2CCC(N(C)Cc3ccccc3C#N)CC2)ncn1 [Example 65, N-methyl-N-(2-cyanobenzyl)-N-[1-(6-methoxypyrimidin-4-yl)piperidin-4-yl]amine]	62.2%	66.1%	16.8%	42.7%	65.8%	23.3%
COc1cc(N2CCC(N(C)Cc3cc(Cl)ccc3Cl)CC2)ncn1 [Example 67, N-methyl-N-(2,5-dichlorobenzyl)-N-[1-(6-methoxypyrimidin-4-yl)piperidin-4-yl]amine]	32.1%	61.1%	9.4%	27.6%	45.9%	29.2%
CNC1CCN(c2nccc(OC)n2)CC1 [Example 46, N-methyl-N-[1-(4-methoxypyrimidin-2-yl)piperidin-4-yl]amine]	70%	79.2%	71%	53.2%	73.1%	85.9%
CCOc1ncc(CN2CCC(N(C)Cc3cc(Cl)ccc3Cl)CC2)s1 [Example 10, N-methyl-N-(2,5-dichlorobenzyl)-N-{[1-(2-ethoxythiazol-5-yl)methyl]piperidin-4-yl}amine]	9.6%	23.9%	5.2%	25.3%	5.6%	9.4%
CS(=O)(=O)CCNCc1ccc(-c2ccc3ncnc(Nc4ccc(OCc5cccc(F)c5)c(Cl)c4)c3c2)o1 [lapatinib, reference compound]	18%	42.6%	10.4%	40.2%	75.6%	79%
CCOc1ncc(CN2CCC(N(C)Cc3ccccc3C#N)CC2)s1 [Example 2, N-methyl-N-o-cyanobenzyl-N-{1-[(2-ethoxythiazol-5-yl)methyl]piperidin-4-yl}amine]	19.4%	43.8%	7.2%	12.3%	17.6%	13.6%
COc1cc(N2CCC(N(C)Cc3ccc(F)cc3)CC2)ncn1 [Example 62, N-methyl-N-(4-fluorobenzyl)-N-[1-(6-methoxypyrimidin-4-yl)piperidin-4-yl]amine]	8.1%	5%	5.7%	4.9%	7.8%	7.6%
CSc1ncc(CN2CCC(N(C)Cc3ccc(C)cc3)CC2)s1 [Example 26, N-methyl-N-(4-methylbenzyl)-N-{[1-(2-methylthiothiazol-5-yl)methyl]piperidin-4-yl}amine]	66.7%	67.1%	12.1%	38.3%	68.3%	49.6%
COc1cc(N2CCC(N(C)Cc3ccccc3Cl)CC2)ncn1 [Example 58, N-methyl-N-(2-chlorobenzyl)-N-[1-(6-methoxypyrimidin-4-yl)piperidin-4-yl]amine]	18.9%	46.7%	29%	20.3%	27.7%	13.5%
COc1cc(N2CCC(N(C)Cc3cccc(Cl)c3)CC2)ncn1 [Example 63, N-methyl-N-(3-chlorobenzyl)-N-[1-(6-methoxypyrimidin-4-yl)piperidin-4-yl]amine]	9.4%	23.8%	24.8%	25.6%	11.9%	12.6%
CN(Cc1ccc(C#N)cc1)C1CCN(Cc2cnc(Cl)s2)CC1 [Example 15, N-methyl-N-(4-cyanobenzyl)-N-{1-[(2-chlorothiazol-5-yl)methyl]piperidin-4-yl}amine]	68.7%	68.5%	7.5%	35.6%	69.3%	41.5%
CSc1nccc(N2CCC(N(C)Cc3ccc(C)cc3)CC2)n1 [Example 42, N-methyl-N-(4-methylbenzyl)-N-[1-(2-methylthiopyrimidin-4-yl)piperidin-4-yl]amine]	28.6%	60.8%	35.8%	45.1%	36.7%	41.4%
Clc1ncc(CN2CCC(NCc3ccc(Cl)c(Cl)c3)CC2)s1 [Example 11, N-(3,4-dichlorobenzyl)-N-{1-[(2-chlorothiazol-5-yl)methyl]piperidin-4-yl}amine]	10.6%	32.9%	25.1%	13.9%	11%	26.3%
CCOc1ncc(CN2CCC(N(C)Cc3ccc(Cl)cc3Cl)CC2)s1 [Example 8, N-methyl-N-(2,4-dichlorobenzyl)-N-{[1-(2-ethoxythiazol-5-yl)methyl]piperidin-4-yl}amine]	65.9%	71.3%	12%	49.2%	70.3%	41.6%
